In US10981917B2, “Heterocyclic compound, its preparation method, and pharmaceutical composition comprising the same” (Daewoong Pharmaceutical Co., Ltd., priority 2017, dated 2021):

target: PRS (prolyl-tRNA synthetase) protein, PRS portion of EPRS (Homo sapiens (Human), UniProt P07814); experiment: PRS enzyme activity inhibition experiment ([3H]proline, liquid scintillation); format: biochemical; conditions: purified PRS protein, 37° C. for 5 to 10 minutes
Experimental: In order to confirm the biological activities of the compounds prepared in Examples, % inhibition or IC50 values of PRS enzyme ([…]) activities were calculated.
Specifically, the portion corresponding to PRS in cDNA of EPRS was subcloned, and the obtained high-purity PRS protein was purified and used in the experiment. The compounds (1 μM) prepared in Examples were added into the reaction buffer (20 mM KPO4 (pH 7.4), 6 mM MgAc, 5 mM ATP, […] tRNA, 0.5 mM DTT, […][^3H]proline (1 mCi/mL)) and allowed to react at 37° C. for 5 to 10 minutes. The reaction was terminated with 3M paper that was in advance dried by addition of 5% TCA. The radioactivity was measured using a liquid scintillation counter.
% Inhibition and IC50 values of the respective compounds were calculated and analyzed using Microsoft Excel or Sigma Plot 8.0. In Tables 1 to 3, the results are divided into A, B and C according to the range of IC50. The case where the derived IC50 is 100 nM or less is represented by “A”, the case where the IC50 is 100 to 500 nM is represented by “B”, and the case where the IC50 is 500 nM or higher is represented by “C”.

Sequence of PRS (prolyl-tRNA synthetase) protein, PRS portion of EPRS (P07814 1007-1512): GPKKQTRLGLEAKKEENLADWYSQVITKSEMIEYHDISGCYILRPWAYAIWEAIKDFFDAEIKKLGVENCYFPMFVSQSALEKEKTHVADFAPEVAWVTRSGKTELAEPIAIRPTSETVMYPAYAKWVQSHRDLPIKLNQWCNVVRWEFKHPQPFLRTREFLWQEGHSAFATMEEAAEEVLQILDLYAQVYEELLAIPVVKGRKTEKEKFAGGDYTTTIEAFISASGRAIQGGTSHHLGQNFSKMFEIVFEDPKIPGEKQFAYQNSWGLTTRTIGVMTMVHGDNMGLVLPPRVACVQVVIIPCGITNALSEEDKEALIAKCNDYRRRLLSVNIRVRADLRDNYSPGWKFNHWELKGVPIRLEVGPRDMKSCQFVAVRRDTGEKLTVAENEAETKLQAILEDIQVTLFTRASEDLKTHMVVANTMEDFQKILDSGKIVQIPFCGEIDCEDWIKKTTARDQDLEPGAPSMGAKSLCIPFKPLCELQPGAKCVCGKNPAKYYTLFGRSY

| Compound | IC50 [nM] |
| --- | --- |
| O[C@H]1CCCN[C@@H]1CCCn1cnc2cnc(Br)cc21 [Example 124, (2R,3S)-2-(3-(6-bromo-1H-imidazo[4,5-c]pyridin-1-yl)propyl)piperidin-3-ol] | ≥ 500 |
| O[C@H]1CCCN[C@@H]1CCCn1cnc2c(N3CCCC3)ncnc21 [Example 142, (2R,3S)-2-(3-(6-(pyrrolidin-1-yl)-9H-purin-9-yl)propyl)piperidin-3-ol] | ≥ 500 |
| COC(=O)c1cn(C/C=C/[C@H]2NCCC[C@@H]2O)c2c(Br)cccc12 [Example 202, methyl 7-bromo-1-((E)-3-((2R,3S)-3-hydroxypiperidin-2-yl)allyl)-1H-indole-3-carboxylate] | 100 to 500 |
| O[C@H]1CCCN[C@@H]1CCCn1cnc2cc(-c3cn[nH]c3)ccc21 [Example 29, (2R,3S)-2-(3-(5-(1H-pyrazol-4-yl)-1H-benzo[d]imidazol-1-yl)propyl)piperidin-3-ol] | ≥ 500 |
| CCOC(=O)c1occc1-c1cc(Cl)cc2ncn(CCC[C@H]3NCCC[C@@H]3O)c12 [Example 110, ethyl 3-(5-chloro-1-(3-((2R,3S)-3-hydroxypiperidin-2-yl)propyl)-1H-benzo[d]imidazol-7-yl)furan-2-carboxylate] | ≥ 500 |
| Cc1c(Br)ccc2c1ncn2C/C(F)=C/[C@H]1NCCC[C@@H]1O [Example 218, (2R,3S)-2-((Z)-3-(5-bromo-4-methyl-1H-benzo[d]imidazol-1-yl)-2-fluoroprop-1-en-1-yl)piperidin-3-ol] | ≥ 500 |
| Cc1c(Br)ccc2c1ncn2CC#C[C@H]1NCCC[C@@H]1O [Example 226, (2R,3S)-2-(3-(5-bromo-4-methyl-1H-benzo[d]imidazol-1-yl)prop-1-yn-1-yl)piperidin-3-ol] | ≥ 500 |
| O=c1[nH]c2ccc(Br)cc2n1CCC[C@H]1NCCC[C@@H]1O [Example 161, 6-bromo-1-(3-((2R,3S)-3-hydroxypiperidin-2-yl)propyl)-1H-benzo[d]imidazol-2(3H)-one] | ≥ 500 |
| COC(=O)c1cn(CCC[C@H]2NCCC[C@@H]2O)c2cccc(Cl)c12 [Example 152, methyl 4-chloro-1-(3-((2R,3S)-3-hydroxypiperidin-2-yl)propyl)-1H-indole-3-carboxylate] | ≥ 500 |
| O[C@H]1CCCN[C@@H]1CCCn1cnc2cccc(F)c21 [Example 9, (2R,3S)-2-(3-(7-fluoro-1H-benzo[d]imidazol-1-yl)propyl)piperidin-3-ol] | ≥ 500 |
| Cc1ccc2c(ncn2C/C=C/[C@H]2NCCC[C@@H]2O)c1C [Example 172, (2R,3S)-2-((E)-3-(4,5-dimethyl-1H-benzo[d]imidazol-1-yl)prop-1-en-1-yl)piperidin-3-ol] | ≥ 500 |
| COC(=O)c1cn(CCC[C@H]2NCCC[C@@H]2O)c2ccc(Br)cc12 [Example 150, methyl 5-bromo-1-(3-((2R,3S)-3-hydroxypiperidin-2-yl)propyl)-1H-indole-3-carboxylate] | ≥ 500 |
| Cn1c(=O)c2c(ncn2CCC[C@H]2NCCC[C@@H]2O)n(C)c1=O [Example 162, 7-(3-((2R,3S)-3-hydroxypiperidin-2-yl)propyl)-1,3-dimethyl-1H-purine-2,6(3H,7H)-dione] | ≥ 500 |
| CN(C)c1ncnc2c1ncn2CCC[C@H]1NCCC[C@@H]1O [Example 137, (2R,3S)-2-(3-(6-(dimethylamino)-9H-purin-9-yl)propyl)piperidin-3-ol] | ≥ 500 |
| O[C@H]1CCCN[C@@H]1CCCn1cnc2cc(C(F)(F)F)cc(-c3cccc(F)c3)c21 [Example 84, (2R,3S)-2-(3-(7-(3-fluorophenyl)-5-(trifluoromethyl)-1H-benzo[d]imidazol-1-yl)propyl)piperidin-3-ol] | ≥ 500 |
| O[C@H]1CCCN[C@@H]1CCCn1cnc2ccc(Cl)nc21 [Example 118, (2R,3S)-2-(3-(5-chloro-3H-imidazo[4,5-b]pyridin-3-yl)propyl)piperidin-3-ol] | ≥ 500 |
| Cc1c(F)ccc2c1ncn2CC#C[C@H]1NCCC[C@@H]1O [Example 229, (2R,3S)-2-(3-(5-fluoro-4-methyl-1H-benzo[d]imidazol-1-yl)prop-1-yn-1-yl)piperidin-3-ol] | ≥ 500 |
| O[C@H]1CCCN[C@@H]1CCCn1cnc2cc(Cl)cc(-c3cnn(C4COC4)c3)c21 [Example 102, (2R,3S)-2-(3-(5-chloro-7-(1-(oxetan-3-yl)-1H-pyrazol-4-yl)-1H-benzo[d]imidazol-1-yl)propyl)piperidin-3-ol] | 100 to 500 |
| O[C@H]1CCCN[C@@H]1CCCn1cnc2ccc(-c3cn[nH]c3)cc21 [Example 30, (2R,3S)-2-(3-(6-(1H-pyrazol-4-yl)-1H-benzo[d]imidazol-1-yl)propyl)piperidin-3-ol] | 100 to 500 |
| O[C@H]1CCCN[C@@H]1CCCn1cnc2c(-c3cccc(F)c3)cccc21 [Example 20, (2R,3S)-2-(3-(4-(3-fluorophenyl)-1H-benzo[d]imidazol-1-yl)propyl)piperidin-3-ol] | ≥ 500 |
| O[C@H]1CCCN[C@@H]1CCCn1cnc2cc(Cl)cc(-c3cnn(CCF)c3)c21 [Example 112, (2R,3S)-2-(3-(5-chloro-7-(1-(2-fluoroethyl)-1H-pyrazol-4-yl)-1H-benzo[d]imidazol-1-yl)propyl)piperidin-3-ol] | 100 to 500 |

Next, values leading:

| IC50 [nM] | Compound |
| --- | --- |
| 100 to 500 | O[C@H]1CCCN[C@@H]1/C=C/Cn1cnc2cc(C(F)(F)F)cc(Cl)c21 [Example 181, (2R,3S)-2-((E)-3-(7-chloro-5-(trifluoromethyl)-1H-benzo[d]imidazol-1-yl)prop-1-en-1-yl)piperidin-3-ol] |
| 100 to 500 | O[C@H]1CCCN[C@@H]1CCCn1cnc2cccc(C(F)(F)F)c21 [Example 16, (2R,3S)-2-(3-(7-(trifluoromethyl)-1H-benzo[d]imidazol-1-yl)propyl)piperidin-3-ol] |
| 100 to 500 | O[C@H]1CCCN[C@@H]1/C=C/Cn1cnc2cc(Cl)c(Cl)cc21 [Example 166, (2R,3S)-2-((E)-3-(5,6-dichloro-1H-benzo[d]imidazol-1-yl)prop-1-enyl)piperidin-3-ol] |
| 100 to 500 | O[C@H]1CCCN[C@@H]1CCCn1cnc2ccc(Cl)cc21 [Example 1, (2R,3S)-2-(3-(6-chloro-1H-benzo[d]imidazol-1-yl)propyl)piperidin-3-ol] |
| ≤ 100 | O[C@H]1CCCN[C@@H]1CCCn1cnc2cc(Cl)cc(N3CCCC3)c21 [Example 99, (2R,3S)-2-(3-(5-chloro-7-(pyrrolidin-1-yl)-1H-benzo[d]imidazol-1-yl)propyl)piperidin-3-ol] |
| 100 to 500 | O[C@H]1CCCN[C@@H]1CCCn1cnc2nc(Cl)ccc21 [Example 117, (2R,3S)-2-(3-(5-chloro-1H-imidazo[4,5-b]pyridin-1-yl)propyl)piperidin-3-ol] |
| ≤ 100 | O[C@H]1CCCN[C@@H]1/C=C/Cn1cnc2c(Cl)c(Cl)ccc21 [Example 174, (2R,3S)-2-((E)-3-(4,5-dichloro-1H-benzo[d]imidazol-1-yl)prop-1-en-1-yl)piperidin-3-ol] |
| 100 to 500 | O[C@H]1CCCN[C@@H]1CCCn1cnc2cc(Cl)cc(C3=CCOCC3)c21 [Example 94, (2R,3S)-2-(3-(5-chloro-7-(3,6-dihydro-2H-pyran-4-yl)-1H-benzo[d]imidazol-1-yl)propyl)piperidin-3-ol] |
| ≤ 100 | CCOC(=O)c1cc(-c2cc(Cl)cc3ncn(CCC[C@H]4NCCC[C@@H]4O)c23)cn1C [Example 116, ethyl 4-(5-chloro-1-(3-((2R,3S)-3-hydroxypiperidin-2-yl)propyl)-1H-benzo[d]imidazol-7-yl)-1-methyl-1H-pyrrole-2-carboxylate] |
| 100 to 500 | O[C@H]1CCCN[C@@H]1CCCn1cnc2cccc(-c3cccc(F)c3)c21 [Example 27, (2R,3S)-2-(3-(7-(3-fluorophenyl)-1H-benzo[d]imidazol-1-yl)propyl)piperidin-3-ol] |
| 100 to 500 | O[C@H]1CCCN[C@@H]1CCCn1cnc2cc(Cl)ccc21 [Example 11, (2R,3S)-2-(3-(5-chloro-1H-benzo[d]imidazol-1-yl)propyl)piperidin-3-ol] |
| 100 to 500 | O[C@H]1CCCN[C@@H]1/C=C/Cn1cnc2cc(Br)c(Br)cc21 [Example 170, (2R,3S)-2-((E)-3-(5,6-dibromo-1H-benzo[d]imidazol-1-yl)prop-1-en-1-yl)piperidin-3-ol] |
| 100 to 500 | Cc1c(Br)cnc2c1ncn2CCC[C@H]1NCCC[C@@H]1O [Example 132, (2R,3S)-2-(3-(6-bromo-7-methyl-3H-imidazo[4,5-b]pyridin-3-yl)propyl)piperidin-3-ol] |
| 100 to 500 | O[C@H]1CCCN[C@@H]1CCCn1cnc2cc(C(F)(F)F)cc(Cl)c21 [Example 78, (2R,3S)-2-(3-(7-chloro-5-(trifluoromethyl)-1H-benzo[d]imidazol-1-yl)propyl)piperidin-3-ol] |
| 100 to 500 | O[C@H]1CCCN[C@@H]1CCCn1cnc2cc(Br)c(F)cc21 [Example 35, (2R,3S)-2-(3-(5-bromo-6-fluoro-1H-benzo[d]imidazol-1-yl)propyl)piperidin-3-ol] |
| 100 to 500 | Cc1c(Cl)ccc2c1ncn2C/C=C/[C@H]1NCCC[C@@H]1O [Example 173, (2R,3S)-2-((E)-3-(5-chloro-4-methyl-1H-benzo[d]imidazol-1-yl)prop-1-en-1-yl)piperidin-3-ol] |
| ≤ 100 | COC(=O)c1cc(-c2cc(Cl)cc3ncn(CCC[C@H]4NCCC[C@@H]4O)c23)cs1 [Example 111, methyl 4-(5-chloro-1-(3-((2R,3S)-3-hydroxypiperidin-2-yl)propyl)-1H-benzo[d]imidazol-7-yl)thiophene-2-carboxylate] |
